Reference: publication PMC6010027, “Iodine-mediated one-pot intramolecular decarboxylation domino reaction for accessing functionalised 2-(1,3,4-oxadiazol-2-yl)anilines with carbonic anhydrase inhibitory action” (Journal of Enzyme Inhibition and Medicinal Chemistry, 2018)

Columns and labels:
Assay in all cases: stopped-flow CO2 hydrase assay
Type in all cases: biochemical
hCA IX = biological target: T1, hCA IX (Homo sapiens, UniProt Q16790)
T1 construct: gene CA9; recombinant; transmembrane isoform
From the text: stopped-flow CO2 hydrase assay on hCA IX

hCA I = biological target: T2, hCA I (Homo sapiens, UniProt P00915)
T2 construct: gene CA1; recombinant; cytosolic isoform
T2 sequence (P00915 2-261): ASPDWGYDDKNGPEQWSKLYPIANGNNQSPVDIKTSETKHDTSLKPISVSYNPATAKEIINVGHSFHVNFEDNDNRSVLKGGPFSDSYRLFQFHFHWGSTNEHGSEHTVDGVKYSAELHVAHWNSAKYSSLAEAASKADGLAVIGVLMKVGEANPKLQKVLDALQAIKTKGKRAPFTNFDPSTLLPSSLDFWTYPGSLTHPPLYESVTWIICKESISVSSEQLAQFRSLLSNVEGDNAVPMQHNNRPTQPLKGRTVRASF
From the text: stopped-flow CO2 hydrase assay on hCA I

hCA II = biological target: T3, hCA II (Homo sapiens, UniProt P00918)
T3 construct: gene CA2; recombinant; cytosolic isoform
From the text: stopped-flow CO2 hydrase assay on hCA II

hCA IV = biological target: T4, hCA IV (Homo sapiens, UniProt P22748)
T4 construct: gene CA4; recombinant; membrane-anchored isoform
T4 sequence (P22748 19-284): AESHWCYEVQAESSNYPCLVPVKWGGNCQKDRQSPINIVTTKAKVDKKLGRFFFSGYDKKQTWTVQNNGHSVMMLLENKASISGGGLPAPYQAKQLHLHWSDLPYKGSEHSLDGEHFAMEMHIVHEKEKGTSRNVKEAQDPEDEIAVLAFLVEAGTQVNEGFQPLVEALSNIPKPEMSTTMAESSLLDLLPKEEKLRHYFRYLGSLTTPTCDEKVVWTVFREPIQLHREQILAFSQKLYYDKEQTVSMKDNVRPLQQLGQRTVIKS
From the text: stopped-flow CO2 hydrase assay on hCA IV

| SMILES | Ki (hCA IX) [nM] | Ki (hCA I) [nM] | Ki (hCA II) [nM] | Ki (hCA IV) [nM] |
| --- | --- | --- | --- | --- |
| Nc1ccc(F)cc1-c1nnc(-c2cccc(S(N)(=O)=O)c2)o1 [8m, 3-(5-(2-Amino-5-fluorophenyl)-1,3,4-oxadiazol-2-yl)benzenesulfonamide] | 2570 | 747 | 307 | 548 |
| Nc1c(F)cccc1-c1nnc(-c2ccc(S(N)(=O)=O)cc2)o1 [8g, 4-(5-(2-Amino-3-fluorophenyl)-1,3,4-oxadiazol-2-yl)benzenesulfonamide] | 2270 | 81.4 | 6.4 | 2020 |
| Nc1ccccc1-c1nnc(-c2ccc(S(N)(=O)=O)cc2)o1 [8a, 4-(5-(2-Aminophenyl)-1,3,4-oxadiazol-2-yl)benzenesulfonamide] | 1890 | 222 | 34.1 | 7340 |
| Nc1c(F)cccc1-c1nnc(-c2cccc(S(N)(=O)=O)c2)o1 [8o, 3-(5-(2-Amino-3-fluorophenyl)-1,3,4-ovxadiazol-2-yl)benzenesulfonamide] | 140 | 731 | 86.3 | 522 |
| Nc1ccc(OC(F)(F)F)cc1-c1nnc(-c2cccc(S(N)(=O)=O)c2)o1 [8n, 3-(5-(2-Amino-5-(trifluoromethoxy)phenyl)-1,3,4-oxadiazol-2-yl)benzenesulfonamide] | 255 | 344 | 480 | 9430 |
| COc1ccc(N)c(-c2nnc(-c3cccc(S(N)(=O)=O)c3)o2)c1 [8l, 3-(5-(2-Amino-5-methoxyphenyl)-1,3,4-oxadiazol-2-yl)benzenesulfonamide] | 2720 | 3510 | 516 | 588 |
| Nc1c(Cl)cc(Cl)cc1-c1nnc(-c2ccc(S(N)(=O)=O)cc2)o1 [8i, 4-(5-(2-Amino-3,5-dichlorophenyl)-1,3,4-oxadiazol-2-yl)benzenesulfonamide] | 2740 | 813 | 46.4 | 6780 |
| Cc1cc(C)c(N)c(-c2nnc(-c3ccc(S(N)(=O)=O)cc3)o2)c1 [8h, 4-(5-(2-Amino-3,5-dimethylphenyl)-1,3,4-oxadiazol-2-yl)benzenesulfonamide] | 2030 | 89.1 | 17.6 | 7590 |
| Nc1ccc(OC(F)(F)F)cc1-c1nnc(-c2ccc(S(N)(=O)=O)cc2)o1 [8f, 4-(5-(2-Amino-5-(trifluoromethoxy)phenyl)-1,3,4-oxadiazol-2-yl)benzenesulfonamide] | 2450 | 710 | 93.2 | 2170 |
| Cc1ccc(N)c(-c2nnc(-c3cccc(S(N)(=O)=O)c3)o2)c1 [8k, 3-(5-(2-Amino-5-methylphenyl)-1,3,4-oxadiazol-2-yl)benzenesulfonamide] | 2960 | 5830 | 64.6 | 437 |
| Nc1ccccc1-c1nnc(-c2cccc(S(N)(=O)=O)c2)o1 [8j, 3-(5-(2-Aminophenyl)-1,3,4-oxadiazol-2-yl)benzenesulfonamide] | 2920 | 3310 | 46.9 | 526 |
| COc1ccc(N)c(-c2nnc(-c3ccc(S(N)(=O)=O)cc3)o2)c1 [8c, 4-(5-(2-Amino-5-methoxyphenyl)-1,3,4-oxadiazol-2-yl)benzenesulfonamide] | 282 | 321 | 16.4 | 5920 |
| Nc1ccc(F)cc1-c1nnc(-c2ccc(S(N)(=O)=O)cc2)o1 [8d, 4-(5-(2-Amino-5-fluorophenyl)-1,3,4-oxadiazol-2-yl)benzenesulfonamide] | 1600 | 736 | 43.7 | 6330 |
| Cc1ccc(N)c(-c2nnc(-c3ccc(S(N)(=O)=O)cc3)o2)c1 [8b, 4-(5-(2-Amino-5-methylphenyl)-1,3,4-oxadiazol-2-yl)benzenesulfonamide] | 1600 | 270 | 51.5 | 5610 |
| Nc1ccc(Cl)cc1-c1nnc(-c2ccc(S(N)(=O)=O)cc2)o1 [8e, 4-(5-(2-Amino-5-chlorophenyl)-1,3,4-oxadiazol-2-yl)benzenesulfonamide] | 2370 | 3500 | 221 | 8240 |
